The numbers were not newly measured in patent publication US8193376B2, “Artemisinin derivatives with natural amino acids, peptides, and amino sugars for the treatment of infection and topical condition in mammals” (Bioderm Research, priority 2007, dated 2012), which cites them from elsewhere.

For one data set, the system named is malaria. The conditions noted are these: relative to artemisinin.
The test system of the next data set is nucleic acid synthesis. The conditions noted are these: relative to artemisinin.

Take `CO[C@H]1O[C@@H]2O[C@@]3(C)CC[C@H]4[C@H](C)CC[C@@H]([C@H]1C)[C@@]24OO3` [Artemether]: the “antimalarial potency, times that of artemisinin” value in the data set with malaria is 6 times. In addition, the “ability to inhibit nucleic acid synthesis, times the activity of artemisinin” value in the data set with nucleic acid synthesis is recorded as 100 times.

Consider `C[C@H]1[C@H](OC(=O)CCC(=O)O)O[C@@H]2O[C@@]3(C)CC[C@H]4[C@H](C)CC[C@@H]1[C@@]24OO3` [Artesunate], for which the “antimalarial potency, times that of artemisinin” value in the data set on malaria is 5.2 times. Further, the “ability to inhibit nucleic acid synthesis, times the activity of artemisinin” value in the data set with nucleic acid synthesis was 100 times.

On to `C[C@H]1[C@@H](O)O[C@@H]2O[C@@]3(C)CC[C@H]4[C@H](C)CC[C@@H]1[C@@]24OO3` [Dihydroartemisinin], for which the “antimalarial potency higher than that of artemisinin” value in the data set with malaria is 60%. In addition, in the data set with nucleic acid synthesis, the “ability to inhibit nucleic acid synthesis, times the activity of artemisinin” value is listed as 100 times.

Consider `CCO[C@H]1O[C@@H]2O[C@@]3(C)CC[C@H]4[C@H](C)CC[C@@H]([C@H]1C)[C@@]24OO3` [arteether, Arteether], for which the “ability to inhibit nucleic acid synthesis, times the activity of artemisinin” value in the data set on nucleic acid synthesis is on record as 100 times.

For the compound `CCCOC(=O)OC1O[C@@H]2O[C@@]3(C)CC[C@H]4[C@H](C)CC[C@@H]([C@H]1C)[C@@]24OO3` (some centres unmarked) [propylcarbonate dihydroartemisinin], the “ability to inhibit nucleic acid synthesis, times the activity of artemisinin” value in the data set with nucleic acid synthesis is 100 times.
